Values belong to the molecule of their own block, whether it stands above or below them. Positions of bridges follow the written chain, without caps; N, C: chain ends. Primed or numbered codes have the meaning given here. No end group written: not given here. *: point of attachment. PEG4′ = PEG4 spacer between biotin and the N-terminus; Biotin = O=C1N[C@H]2[C@H](CS[C@H]2CCCCC(=O)*)N1
Legend:
IgY‐Fc = test: Peptide-conjugated affinity column HPLC, IgY‐Fc; type: binding, chicken; details: for elution of IgY‐Fc from peptide column: 0.1 M glycine‐HCl, pH 2.5 vs pH 3.0, IgY and IgY‐Fc; for absorption of IgY‐Fc on peptide column: biotinylated peptide on HiTrap Streptavidin HP 1 mL, PBS wash
human IgG [1] = test: Peptide-conjugated affinity column HPLC, human IgG; type: binding; details: biotinylated peptide on HiTrap Streptavidin HP 1 mL, PBS wash
IgY = test: Peptide-conjugated affinity column HPLC, IgY; type: binding, chicken; details: 0.1 M glycine‐HCl, pH 2.5 vs pH 3.0; IgY and IgY‐Fc
human IgG [2] = test: Immunoprecipitation with peptide-immobilized SA beads, human IgG; type: binding; details: biotinylated peptide on SA beads, shaken 1 h; SDS‐PAGE
[3] = biological target: Chicken egg yolk immunoglobulin (IgY) (chicken); test: SPR

Molecule: RSVCVWTAVTGWDCRND (disulfide 4-14 (inferred)) [Y5‐55]
elution of IgY‐Fc from peptide column (IgY‐Fc): eluted from the column at pH 2.5 and 3.0, although the elution peaks at pH 2.5 were sharper than those at pH 3.0 | absorption of IgY‐Fc on peptide column (IgY‐Fc): IgY and IgY‐Fc proteins were absorbed onto both columns | human IgG on peptide column (human IgG [1]): human IgG passed through both peptide‐immobilized columns | elution of IgY from peptide column (IgY): eluted from the column at pH 2.5 and 3.0, although the elution peaks at pH 2.5 were sharper than those at pH 3.0 | recovery of hIgG by peptide beads (human IgG [2]): hIgG was not

Molecule: GVKCTWSSIVDWVCVDM (disulfide 4-14 (inferred)) [Y4‐4]
elution of IgY‐Fc from peptide column (IgY‐Fc): eluted from the column at pH 2.5 and 3.0, although the elution peaks at pH 2.5 were sharper than those at pH 3.0 | absorption of IgY‐Fc on peptide column (IgY‐Fc): IgY and IgY‐Fc proteins were absorbed onto both columns | human IgG on peptide column (human IgG [1]): human IgG passed through both peptide‐immobilized columns | elution of IgY from peptide column (IgY): eluted from the column at pH 2.5 and 3.0, although the elution peaks at pH 2.5 were sharper than those at pH 3.0 | recovery of hIgG by peptide beads (human IgG [2]): hIgG was not

Now from value to molecule:

Kd [3]: 7.3 µM
Molecule: {Biotin-PEG4′}-GVKCTWSSIVDWVCVDM-NH2 (disulfide 4-14 (inferred)) [Y4‐4 synthetic peptide (biotinylated IgY‐binding peptide)]

Kd [3]: 4.4 µM
Molecule: {Biotin-PEG4′}-RSVCVWTAVTGWDCRND-NH2 (disulfide 4-14 (inferred)) [Y5‐55 synthetic peptide (biotinylated IgY‐binding peptide)]
